Reference: patent US20220347167A1, “A NEW TREATMENT FOR MEIBOMIAN GLAND DYSFUNCTION” (The Schepens Eye Research Institute, Inc., priority 2019, published 2022)

Experiments:
HIF1α = HIF1α expression in IHMGECs by western blot; format: cell-based, human; design: HIF1α accumulation in IHMGECs, combination of Roxa and low O2: dose or concentration left out as unconfirmed
Description: Authenticated IHMGECs were grown and passaged in keratinocyte serum-free medium (KSFM) with 5 ng/mL epidermal growth factor (EGF) and 50 μg/mL bovine pituitary extract (BPE) (Thermo Fisher Scientific, Waltham, Mass.) under 21% O2 (normoxia) [Liu et al. (2010) Investigative ophthalmology & visual science 51:3993-4005; McDermott et al. (2018) Current eye research 43:1097-1101; Liu et al. (2013) Investigative ophthalmology & visual science 54:2541-2550]. Upon reaching 60% to 70% confluence, culture media were replaced by a 1:1 mixture of Dulbecco's modified Eagle's medium and Ham's F12 (DMEM/F12, Corning Life Sciences, Tewksbury, Mass.), supplemented with 10% fetal bovine serum (FBS, Atlanta Biologicals, Flowery Branch, Ga.) [Sullivan et al. (2014) Investigative ophthalmology & visual science 55:3866-3877; Liu et al. (2014) JAMA ophthalmology 132:226-228]. […] Culture plates of cells in the hypoxic condition were incubated inside hypoxia chambers filled with a premade 1% O2, 5% CO2 and 94% N2 gas mixture (Linde Gas North America, Hammond, Ind.), according to published protocols in Liu et al. (2019) The ocular surface 17(2):310-317 and Wright and Shay (2006) Nat Protoc 1:2088-2090. Following cell medium changes, the chambers were re-flushed with the gas mixture before returning to the incubator. […] Cell culture experiments (n=3 wells/treatment) were repeated at least 3 times.
[…] The cells were lysed in 2× Laemmli sample buffer (Bio-Rad Laboratories, Hercules, Calif.) and sonicated to extract nuclear protein [Andersen et al. (2002) Current biology: CB 12:1-11]. Human hepatocellular carcinoma cell lines (HepG2 cells) (America Type Culture Collection, Manassas, Va.), which express high concentration of HIF1α under CoCl2 stimulation for 4 hours [Yoo et al. (2014) Journal of cellular biochemistry 115:1147-1158], were used as a positive control for HIF1α antibody. The CoCl2 was purchased from Sigma-Aldrich Corp (St. Louis, Mo.). Cell lysates were then evaluated for HIF1α (1:1000, BD Biosciences, San Jose, Calif.) or β-actin (1:10,000, Cell Signaling Technology) expression. […]

[1] = test system: apolipoprotein E-deficient (ApoE −/−) mice; assay: MGD model in ApoE −/− mice: tear volume and meibomian gland size; format: in vivo, mouse; conditions: Roxa 10 mg/kg subcutaneous, three times per week for 12 weeks
Description: Two groups of ApoE KO mice (vehicle-treated ApoE −/−, as control, and Roxa-treated ApoE −/−), as well as wild-type C57BL/6J mice, were measured for weight, tear volume, corneal fluorescein staining and tear breakup time (TBUT). ApoE −/− mice were randomly divided into 2 groups (n=8 mice/group): control and Roxa-treated. The ApoE−/− mice were treated with vehicle control (2% DMSO in sterile saline, subcutaneous injection) or Roxa (10 mg/kg, subcutaneous injection). The injections were administrated three times/week; on Monday, Wednesday, and Friday mornings; for 12 weeks. At the end of the study, the weight, tear volume, corneal fluorescein staining and tear breakup time (TBUT) were weighted again for comparison. The bar chart in FIG. 6 compares mean tear volume of each group of mice after treatment.
After the Roxa treatment, as described in FIG. 6, the eyelids of each mouse were dissected to assess meibomian gland size and morphology. […]
At the beginning of the study, the 16 ApoE−/− mice and 4 wild-type (WT) C57BL/6J mice, 12 weeks of age, were measured for their weight, tear volume, corneal fluorescein staining and tear breakup time (TBUT). […] At the end of the study, the weight, tear volume, corneal fluorescein staining and tear breakup time (TBUT) were measured again. […]

Cc1nc(C(=O)NCC(=O)O)c(O)c2ccc(Oc3ccccc3)cc12 [Roxa, roxadustat]
HIF1α expression in IHMGECs, Roxa compared with low O2 alone (HIF1α; 21% O2, 6 hours, vs 1% O2 alone): significantly more HIF1α expression than low O2 alone | HIF1α accumulation in IHMGECs, combination of Roxa and low O2 (HIF1α; 6 hours): greatest accumulation | HIF1α expression in IHMGECs (band intensity normalized to β-actin) (HIF1α; Roxa (10 μM elsewhere in the source), normoxic 21% O2, 6 hours, vs control): significantly increased | tear volume ([1]; vs control group and WT mice, p<0.01): significantly increased | meibomian gland loss in the mice eyelids (MG area) ([1]; vs control group, p<0.05): significantly reduced
